Test results published in patent publication US20070128217A1 (priority 2003, published 2007).

Tests used:
[1] = system: rabbit serum obtained by immunizing a rabbit with the SARS-CoV strain Frankfurt 1; assay type: binding; design: Binding of a rabbit serum to linear peptides / Binding of a rabbit serum to looped peptides / Rabbit serum linear peptides / Rabbit serum looped peptides / Binding of a rabbit serum to linear peptides of protein N of SARS-CoV Urbani (Rabbit serum linear peptides) / Binding of a rabbit serum to looped/cyclic peptides of protein N of SARS-CoV Urbani (Rabbit serum looped peptides): unit not given here
[2] = system: control sera (pooled serum of ten healthy LUMC hospital workers; commercial negative donor pooled serum from the Dutch bloodbank); assay type: binding, human; design: Binding of Control serum LUMC to linear peptides / Binding of Control serum Blood-bank to linear peptides / Binding of Control serum LUMC to looped peptides / Binding of Control Serum Blood-Bank to Looped peptides / Binding of Control serum LUMC to linear peptides of the protein M of SARS-CoV Urbani / Binding of Control serum Blood-bank to linear peptides of the protein M of SARS-CoV Urbani / Binding of Control serum LUMC to looped peptides of the protein M of SARS-CoV Urbani / Binding of Control Serum Blood-Bank to Looped peptides of the protein M of SARS-CoV Urbani: unit not given here
[3] = system: recombinant human anti-SARS-CoV antibody 03-018; assay type: binding; design: Binding of antibody 03-018 to linear peptides of the N protein of SARS-CoV Urbani / Binding of antibody 03-018 to looped/cyclic peptides of the N protein of SARS-CoV Urbani: unit not given here
[4] = system: antibodies in sera from SARS patients (sera 1a, 1b, 2, 6, 37, 62, London, SARS-yellow, SARS-green); assay type: binding, human; design: Binding of serum 6 to linear peptides of protein X1 of SARS-CoV Urbani / Binding of serum 37 to linear peptides of protein X1 of SARS-CoV Urbani / Binding of serum 6 to looped/cyclic peptide (PEPSCAN-ELISA) / Binding of serum 37 to looped/cyclic peptide (PEPSCAN-ELISA) / Binding of serum 37 to looped/cyclic peptides of protein X1 of SARS-CoV Urbani / Binding of serum 6 to linear peptides of protein X2 / Binding of serum 37 to linear peptides of protein X2 / Binding of serum 37 to looped/cyclic peptides of protein X2 of SARS-CoV Urbani / Binding of serum 6 to linear peptides of protein M of SARS-CoV Urbani / Binding of serum 37 to linear peptides of protein M of SARS-CoV Urbani / Binding of serum 6 to looped/cyclic peptides of protein M of SARS-CoV Urbani / Binding of serum 37 to looped/cyclic peptides of protein M of SARS-CoV Urbani / Binding of serum 6 to linear peptides of protein X3 of SARS-CoV Urbani / Binding of serum 37 to linear peptides of protein X3 of SARS-CoV Urbani / Binding of serum 37 to looped/cyclic peptides of protein X3 of SARS-CoV Urbani / Binding of serum 6 to linear peptides of protein X4 of SARS-CoV Urbani / Binding of serum 37 to linear peptides of protein X4 of SARS-CoV Urbani / Binding of serum 37 to looped/cyclic peptides of protein X4 of SARS-CoV Urbani / Binding of serum 6 to linear peptides of protein X5 of SARS-CoV Urbani / Binding of serum 37 to linear peptides of protein X5 of SARS-CoV Urbani / Binding of serum 37 to looped/cyclic peptides of protein X5 of SARS-CoV Urbani / Binding of serum 6 to linear peptides of protein N of SARS-CoV Urbani / Binding of serum 37 to linear peptides of protein N of SARS-CoV Urbani / Binding of serum 6 to linear peptide (PEPSCAN-ELISA) / Binding of serum 1a to looped/cyclic peptides of protein N of SARS-CoV Urbani / Binding of serum 1b to looped/cyclic peptides of protein N of SARS-CoV Urbani / Binding of serum 2 to looped/cyclic peptides of protein N of SARS-CoV Urbani / Binding of serum 6 to looped/cyclic peptides of protein N of SARS-CoV Urbani / Binding of serum 37 to looped/cyclic peptides of protein N of SARS-CoV Urbani / Binding of serum 62 to looped/cyclic peptides of protein N of SARS-CoV Urbani / Binding of serum London to looped/cyclic peptides of protein N of SARS-CoV Urbani / Binding of serum SARS-green to looped/cyclic peptides of protein N of SARS-CoV Urbani: unit not given here

Sequence: DEAQPLPQRQKKQPT
- Binding of a rabbit serum to linear peptides of protein N of SARS-CoV Urbani (Rabbit serum linear peptides) [1]: 0.1
- Binding of a rabbit serum to looped/cyclic peptides of protein N of SARS-CoV Urbani (Rabbit serum looped peptides) [1]: 0.0
- Control Serum Blood-Bank Looped peptides [2]: 0.3
- Control serum Blood-bank linear peptides [2]: 0.7
- Control serum LUMC linear peptides [2]: 0.8
- Control serum LUMC looped peptides [2]: 0.3
- Binding of antibody 03-018 to linear peptides of the N protein of SARS-CoV Urbani [3]: 0.1
- Binding of antibody 03-018 to looped/cyclic peptides of the N protein of SARS-CoV Urbani [3]: 0.2
- Binding of serum 1a to linear peptides of protein N of SARS-CoV Urbani [4]: 0.2
- Binding of serum 1a to looped/cyclic peptides of protein N of SARS-CoV Urbani [4]: 0.2
- Binding of serum 1b to linear peptides of protein N of SARS-CoV Urbani [4]: 0.2
- Binding of serum 1b to looped/cyclic peptides of protein N of SARS-CoV Urbani [4]: 0.1
- Binding of serum 2 to linear peptides of protein N of SARS-CoV Urbani [4]: 0.3
- Binding of serum 2 to looped/cyclic peptides of protein N of SARS-CoV Urbani [4]: 0.2
- Binding of serum 6 to linear peptides of protein N of SARS-CoV Urbani [4]: 0.3
- Binding of serum 6 to looped/cyclic peptides of protein N of SARS-CoV Urbani [4]: 0.1
- Binding of serum 37 to linear peptides of protein N of SARS-CoV Urbani [4]: 0.8
- Binding of serum 37 to looped/cyclic peptides of protein N of SARS-CoV Urbani [4]: 0.3
- Binding of serum 62 to linear peptides of protein N of SARS-CoV Urbani [4]: 0.7
- Binding of serum 62 to looped/cyclic peptides of protein N of SARS-CoV Urbani [4]: 0.2
- Binding of serum London to linear peptides of protein N of SARS-CoV Urbani [4]: 1.5
- Binding of serum London to looped/cyclic peptides of protein N of SARS-CoV Urbani [4]: 0.3
- Binding of serum SARS-green to linear peptides of protein N of SARS-CoV Urbani [4]: 0.6
- Binding of serum SARS-green to looped/cyclic peptides of protein N of SARS-CoV Urbani [4]: 0.0
- Binding of serum SARS-yellow to linear peptides of protein N of SARS-CoV Urbani [4]: 1.6
- Binding of serum SARS-yellow to looped/cyclic peptides of protein N of SARS-CoV Urbani [4]: 0.2

Sequence: DLIRQGTDYKHWPQI
- Binding of a rabbit serum to linear peptides of protein N of SARS-CoV Urbani (Rabbit serum linear peptides) [1]: 0.0
- Binding of a rabbit serum to looped/cyclic peptides of protein N of SARS-CoV Urbani (Rabbit serum looped peptides) [1]: 0.5
- Binding of Control Serum Blood-Bank to Looped peptides [2]: 0.5
- Binding of Control serum Blood-bank to linear peptides [2]: 0.6
- Binding of Control serum LUMC to linear peptides [2]: 0.5
- Binding of Control serum LUMC to looped peptides [2]: 0.5
- Binding of antibody 03-018 to linear peptides of the N protein of SARS-CoV Urbani [3]: 0.1
- Binding of antibody 03-018 to looped/cyclic peptides of the N protein of SARS-CoV Urbani [3]: 0.2
- Binding of serum 1a to linear peptides of protein N of SARS-CoV Urbani [4]: 0.2
- Binding of serum 1a to looped/cyclic peptides of protein N of SARS-CoV Urbani [4]: 0.4
- Binding of serum 1b to linear peptides of protein N of SARS-CoV Urbani [4]: 0.1
- Binding of serum 1b to looped/cyclic peptides of protein N of SARS-CoV Urbani [4]: 0.2
- Binding of serum 2 to linear peptides of protein N of SARS-CoV Urbani [4]: 0.2
- Binding of serum 2 to looped/cyclic peptides of protein N of SARS-CoV Urbani [4]: 0.4
- Binding of serum 6 to linear peptides of protein N of SARS-CoV Urbani [4]: 0.2
- Binding of serum 6 to looped/cyclic peptides of protein N of SARS-CoV Urbani [4]: 0.2
- Binding of serum 37 to linear peptides of protein N of SARS-CoV Urbani [4]: 0.6
- Binding of serum 37 to looped/cyclic peptides of protein N of SARS-CoV Urbani [4]: 0.6
- Binding of serum 62 to linear peptides of protein N of SARS-CoV Urbani [4]: 0.6
- Binding of serum 62 to looped/cyclic peptides of protein N of SARS-CoV Urbani [4]: 0.6
- Binding of serum London to linear peptides of protein N of SARS-CoV Urbani [4]: 0.9
- Binding of serum London to looped/cyclic peptides of protein N of SARS-CoV Urbani [4]: 0.4
- Binding of serum SARS-green to linear peptides of protein N of SARS-CoV Urbani [4]: 0.4
- Binding of serum SARS-green to looped/cyclic peptides of protein N of SARS-CoV Urbani [4]: 0.2
- Binding of serum SARS-yellow to linear peptides of protein N of SARS-CoV Urbani [4]: 0.6
- Binding of serum SARS-yellow to looped/cyclic peptides of protein N of SARS-CoV Urbani [4]: 0.3

Sequence: DNNQNGGRNGARPKQ
- Binding of a rabbit serum to linear peptides of protein N of SARS-CoV Urbani (Rabbit serum linear peptides) [1]: 0.1
- Binding of a rabbit serum to looped/cyclic peptides of protein N of SARS-CoV Urbani (Rabbit serum looped peptides) [1]: 0.4
- Binding of Control Serum Blood-Bank to Looped peptides [2]: 0.7
- Binding of Control serum Blood-bank to linear peptides [2]: 0.8
- Binding of Control serum LUMC to linear peptides [2]: 0.6
- Binding of Control serum LUMC to looped peptides [2]: 0.6
- Binding of antibody 03-018 to linear peptides of the N protein of SARS-CoV Urbani [3]: 0.2
- Binding of antibody 03-018 to looped/cyclic peptides of the N protein of SARS-CoV Urbani [3]: 0.3
- Binding of serum 1a to linear peptides of protein N of SARS-CoV Urbani [4]: 0.2
- Binding of serum 1a to looped/cyclic peptides of protein N of SARS-CoV Urbani [4]: 0.4
- Binding of serum 1b to linear peptides of protein N of SARS-CoV Urbani [4]: 0.1
- Binding of serum 1b to looped/cyclic peptides of protein N of SARS-CoV Urbani [4]: 0.2
- Binding of serum 2 to linear peptides of protein N of SARS-CoV Urbani [4]: 0.3
- Binding of serum 2 to looped/cyclic peptides of protein N of SARS-CoV Urbani [4]: 0.4
- Binding of serum 6 to linear peptides of protein N of SARS-CoV Urbani [4]: 0.1
- Binding of serum 6 to looped/cyclic peptides of protein N of SARS-CoV Urbani [4]: 0.3
- Binding of serum 37 to linear peptides of protein N of SARS-CoV Urbani [4]: 0.6
- Binding of serum 37 to looped/cyclic peptides of protein N of SARS-CoV Urbani [4]: 0.6
- Binding of serum 62 to linear peptides of protein N of SARS-CoV Urbani [4]: 0.7
- Binding of serum 62 to looped/cyclic peptides of protein N of SARS-CoV Urbani [4]: 0.4
- Binding of serum London to linear peptides of protein N of SARS-CoV Urbani [4]: 0.5
- Binding of serum London to looped/cyclic peptides of protein N of SARS-CoV Urbani [4]: 0.4
- Binding of serum SARS-green to linear peptides of protein N of SARS-CoV Urbani [4]: 0.6
- Binding of serum SARS-green to looped/cyclic peptides of protein N of SARS-CoV Urbani [4]: 0.4
- Binding of serum SARS-yellow to linear peptides of protein N of SARS-CoV Urbani [4]: 0.6
- Binding of serum SARS-yellow to looped/cyclic peptides of protein N of SARS-CoV Urbani [4]: 0.4

Sequence: DNVILLNKHIDAYKT
- Binding of a rabbit serum to linear peptides of protein N of SARS-CoV Urbani (Rabbit serum linear peptides) [1]: 0.1
- Binding of a rabbit serum to looped/cyclic peptides of protein N of SARS-CoV Urbani (Rabbit serum looped peptides) [1]: 0.6
- Control Serum Blood-Bank Looped peptides [2]: 0.7
- Control serum Blood-bank linear peptides [2]: 0.5
- Control serum LUMC linear peptides [2]: 0.6
- Control serum LUMC looped peptides [2]: 0.7
- Binding of antibody 03-018 to linear peptides of the N protein of SARS-CoV Urbani [3]: 0.1
- Binding of antibody 03-018 to looped/cyclic peptides of the N protein of SARS-CoV Urbani [3]: 0.2
- Binding of serum 1a to linear peptides of protein N of SARS-CoV Urbani [4]: 0.2
- Binding of serum 1a to looped/cyclic peptides of protein N of SARS-CoV Urbani [4]: 0.4
- Binding of serum 1b to linear peptides of protein N of SARS-CoV Urbani [4]: 0.1
- Binding of serum 1b to looped/cyclic peptides of protein N of SARS-CoV Urbani [4]: 0.3
- Binding of serum 2 to linear peptides of protein N of SARS-CoV Urbani [4]: 0.2
- Binding of serum 2 to looped/cyclic peptides of protein N of SARS-CoV Urbani [4]: 0.4
- Binding of serum 6 to linear peptides of protein N of SARS-CoV Urbani [4]: 0.1
- Binding of serum 6 to looped/cyclic peptides of protein N of SARS-CoV Urbani [4]: 0.2
- Binding of serum 37 to linear peptides of protein N of SARS-CoV Urbani [4]: 0.6
- Binding of serum 37 to looped/cyclic peptides of protein N of SARS-CoV Urbani [4]: 0.7
- Binding of serum 62 to linear peptides of protein N of SARS-CoV Urbani [4]: 0.6
- Binding of serum 62 to looped/cyclic peptides of protein N of SARS-CoV Urbani [4]: 0.7
- Binding of serum London to linear peptides of protein N of SARS-CoV Urbani [4]: 0.5
- Binding of serum London to looped/cyclic peptides of protein N of SARS-CoV Urbani [4]: 0.5
- Binding of serum SARS-green to linear peptides of protein N of SARS-CoV Urbani [4]: 0.2
- Binding of serum SARS-green to looped/cyclic peptides of protein N of SARS-CoV Urbani [4]: 0.3
- Binding of serum SARS-yellow to linear peptides of protein N of SARS-CoV Urbani [4]: 0.6
- Binding of serum SARS-yellow to looped/cyclic peptides of protein N of SARS-CoV Urbani [4]: 0.8
